In PubChem BioAssay AID206 (DTP/NCI, 2004):
Where “and” joins values, the source holds several entries; their conditions need not be identical. Equal values may be shown once. Results filed as inconclusive are left out.

System: nude mice, HT29 intrarenal xenograft, tumor weight T/C
Test: NCI In Vivo Anticancer Drug Screen. Data for tumor model HT29;CX-1 Human Adenocarcinoma (MER+) (intrarenal inoculation) in NU/NU Swiss (nude) mice
Details: endpoint: mean tumor weight change, higher = larger tumour
Protocol: The antitumor activity of compounds was measured in mice bearing transplantable tumors. Survival or tumor size were measured and the results are expressed as the measurement made in the treated group (T) divided by the measurement made in the vehicle treated control group (C). The tumor model used in this assay is HT29;CX-1 Human Adenocarcinoma (MER+) (intrarenal inoculation) in NU/NU Swiss (nude) mice

[1] = dose: 75.0 mg/kg/injection, schedule: Q04DX004 (sc), vehicle: saline
[2] = dose: 150.0 mg/kg/injection, schedule: Q04DX004 (sc), vehicle: saline
[3] = dose: 300.0 mg/kg/injection, schedule: Q04DX004 (sc), vehicle: saline
[4] = dose: 600.0 mg/kg/injection, schedule: Q04DX004 (sc), vehicle: saline
[5] = dose: 300.0 mg/kg/injection, schedule: Q04DX004 (sc), vehicle: Klucel (hydroxypropylcellulose) (HPC)
[6] = dose: 150.0 mg/kg/injection, schedule: Q04DX004 (sc), vehicle: saline with Tween-80
[7] = dose: 300.0 mg/kg/injection, schedule: Q04DX004 (sc), vehicle: saline with Tween-80
[8] = dose: 600.0 mg/kg/injection, schedule: Q04DX004 (sc), vehicle: saline with Tween-80
[9] = dose: 75.0 mg/kg/injection, schedule: Q04DX004 (sc), vehicle: Klucel (hydroxypropylcellulose) (HPC)
[10] = dose: 150.0 mg/kg/injection, schedule: Q04DX004 (sc), vehicle: Klucel (hydroxypropylcellulose) (HPC)
[11] = dose: 100.0 mg/kg/injection, schedule: Q01DX010 (sc), vehicle: saline
[12] = dose: 200.0 mg/kg/injection, schedule: Q01DX010 (sc), vehicle: saline

C1CNCOC1
T/C [1]: 123 % of control
T/C [2]: 158 % of control
T/C [3]: 91 % of control
T/C [4]: 75 % of control

O=C(O)c1cc(Cc2ccc(O)c(C(=O)O)c2)ccc1O (tested in a mixture with another compound)
T/C [5]: 62 % of control
T/C (dose: 600.0 mg/kg/injection, schedule: Q04DX004 (sc), vehicle: Klucel (hydroxypropylcellulose) (HPC)): 57 % of control
T/C (dose: 1200.0 mg/kg/injection, schedule: Q04DX004 (sc), vehicle: Klucel (hydroxypropylcellulose) (HPC)): 114 % of control
T/C (dose: 2400.0 mg/kg/injection, schedule: Q04DX004 (sc), vehicle: Klucel (hydroxypropylcellulose) (HPC)): 104 % of control

CCN(CC)CCOCCO
T/C [2]: 113 % of control
T/C [3]: 89 % of control

ClCCCN1CCN(CCCCl)CC1
T/C (dose: 62.5 mg/kg/injection, schedule: Q04DX004 (sc), vehicle: distilled water + alcohol): 52 % of control
T/C (dose: 125.0 mg/kg/injection, schedule: Q04DX004 (sc), vehicle: distilled water + alcohol): 17 % of control

O=C1NCC(Br)C(=O)N1 (stereo not given)
T/C [6]: 68 % of control
T/C [7]: 50 % of control
T/C [8]: 60 % of control

CC(C)[NH-].CC(C)[NH-].O.O.[Cl][Pt+2][Cl]
T/C (dose: 6.25 mg/kg/injection, schedule: Q01DX010 (sc), vehicle: dextrose): 77 % of control and 79 % of control
T/C (dose: 12.5 mg/kg/injection, schedule: Q01DX010 (sc), vehicle: dextrose): 7 % of control and 23 % of control

O=S(=O)(c1ccccc1)N1CN2CCN(C2)C1
T/C (dose: 225.0 mg/kg/injection, schedule: Q04DX004 (sc), vehicle: saline with Tween-80): 58 % of control
T/C (dose: 450.0 mg/kg/injection, schedule: Q04DX004 (sc), vehicle: saline with Tween-80): 75 % of control
T/C (dose: 900.0 mg/kg/injection, schedule: Q04DX004 (sc), vehicle: saline with Tween-80): 90 % of control

O=S(=O)(O)O
T/C [9]: 86 % of control
T/C [10]: 116 % of control
T/C [5]: 65 % of control

CCCCCC[C@H]([C@H](C)O)n1cnc2c(N)ncnc21
T/C (dose: 50.0 mg/kg/injection, schedule: Q01DX010 (sc), vehicle: saline): 26 % of control
T/C [11]: 61 % of control
T/C [12]: 56 % of control

Nc1ccn(C2OC(CO)C(O)C2O)c(=O)n1 (stereo not given)
T/C (dose: 15.63 mg/kg/injection, schedule: Q01DX010 (sc), vehicle: water): 100 % of control
T/C (dose: 31.25 mg/kg/injection, schedule: Q01DX010 (sc), vehicle: water): 102 % of control
T/C (dose: 500.0 mg/kg/injection, schedule: Q04DX004 (sc), vehicle: saline): 62 % of control
T/C [4]: 77 % of control
T/C (dose: 1000.0 mg/kg/injection, schedule: Q04DX004 (sc), vehicle: saline): 19 % of control

COc1cc2c(cc1O)N=C[C@@H]1CCC(O)N1C2=O (mixture of isomers)
T/C (dose: 10.0 mg/kg/injection, schedule: Q04DX004 (sc), vehicle: suspension in saline): 64 % of control

CCC1CC2CN(CCc3c([nH]c4ccccc34)C(C(=O)OC)(c3cc4c(cc3OC)N(C)C3C(O)(C(=O)OC)C(OC(C)=O)C5(CC)C=CCN6CCC43C65)C2)C1 (stereo not given)
T/C (dose: 1.0 mg/kg/injection, schedule: Q04DX004 (sc), vehicle: saline): 209 % of control
T/C (dose: 2.0 mg/kg/injection, schedule: Q04DX004 (sc), vehicle: saline): 164 % of control
T/C (dose: 4.0 mg/kg/injection, schedule: Q04DX004 (sc), vehicle: saline): 58 % of control
T/C (dose: 8.0 mg/kg/injection, schedule: Q04DX004 (sc), vehicle: saline): 68 % of control

CCc1ccc(C2=C(O)C(=O)C(c3ccccc3)=C(O)C2=O)cc1
T/C [9]: 159 % of control

COc1ccc(CC2C(=O)NC(C)C(=O)N(C)C3Cc4ccc(cc4)Oc4cc(ccc4O)CC(C(=O)NC(C)C(=O)NC(C)C(=O)N2C)N(C)C3=O)cc1 (stereo not given)
T/C (dose: 1.0 mg/kg/injection, schedule: Q04DX004 (sc), vehicle: saline with Tween-80): 59 % of control
T/C (dose: 2.0 mg/kg/injection, schedule: Q04DX004 (sc), vehicle: saline with Tween-80): 64 % of control
T/C (dose: 4.0 mg/kg/injection, schedule: Q04DX004 (sc), vehicle: saline with Tween-80): 70 % of control
T/C (dose: 8.0 mg/kg/injection, schedule: Q04DX004 (sc), vehicle: saline with Tween-80): 56 % of control and 68 % of control
T/C (dose: 16.0 mg/kg/injection, schedule: Q04DX004 (sc), vehicle: saline with Tween-80): 70 % of control

CC(/C=N/N=C(N)N)=N\N=C(N)N
T/C (dose: 12.5 mg/kg/injection, schedule: Q01DX010 (sc), vehicle: water): 67 % of control

CCCN1COC(OCC)C(C)(C)C1 (stereo not given)
T/C [6]: 114 % of control
T/C [7]: 79 % of control
T/C [8]: 96 % of control

CCN(CC)CCCNc1nccc2c(C)c3[nH]c4ccncc4c3cc12
T/C (dose: 2.5 mg/kg/injection, schedule: Q01DX010 (sc), vehicle: other): 117 % of control
T/C (dose: 5.0 mg/kg/injection, schedule: Q01DX010 (sc), vehicle: other): 108 % of control
T/C (dose: 10.0 mg/kg/injection, schedule: Q01DX010 (sc), vehicle: other): 56 % of control

CCCC(=O)Nc1ncnc2c1ncn2C1OC2COP(=O)(O)OC2C1OC(=O)CCC (stereo not given)
T/C [11]: 106 % of control
T/C [12]: 18 % of control
T/C (dose: 400.0 mg/kg/injection, schedule: Q01DX010 (sc), vehicle: saline): 80 % of control
T/C (dose: 800.0 mg/kg/injection, schedule: Q01DX010 (sc), vehicle: saline): 44 % of control

NC(=O)c1ncn(C2OC(CO)C(O)C2O)c1O (stereo not given)
T/C (dose: 37.5 mg/kg/injection, schedule: Q04DX004 (sc), vehicle: Klucel (hydroxypropylcellulose) (HPC)): 76 % of control
T/C [9]: 77 % of control
T/C [10]: 71 % of control
T/C [5]: 62 % of control

COC1/C=C\C=C(/C)C(=O)NC2=CC(=O)C=C(C2=O)C(OC)C(C)CC(OC)C(OC)C(C)/C=C(/C)C1OC(N)=O (stereo not given)
T/C (dose: 2.25 mg/kg/injection, schedule: Q04DX004 (sc), vehicle: Klucel (hydroxypropylcellulose) (HPC)): 92 % of control and 95 % of control
T/C (dose: 4.5 mg/kg/injection, schedule: Q04DX004 (sc), vehicle: Klucel (hydroxypropylcellulose) (HPC)): 33 % of control
T/C (dose: 9.0 mg/kg/injection, schedule: Q04DX004 (sc), vehicle: Klucel (hydroxypropylcellulose) (HPC)): 4 % of control

O=C(NO)c1ccc(O)c(O)c1
T/C (dose: 200.0 mg/kg/injection, schedule: Q04DX004 (sc), vehicle: water): 52 % of control
T/C (dose: 400.0 mg/kg/injection, schedule: Q04DX004 (sc), vehicle: water): 86 % of control

CCN(CC)Cc1cc2[nH]c3c4ccc(Cl)cc4ncc3c2cc1OC
T/C (dose: 37.5 mg/kg/injection, schedule: Q04DX004 (sc), vehicle: saline with Tween-80): 187 % of control
T/C [6]: 161 % of control
T/C [7]: 94 % of control

C[C@@H](CN1CC(=O)NC(=O)C1)N1CC(=O)NC(=O)C1
T/C (dose: 100.0 mg/kg/injection, schedule: Q01DX010 (sc), vehicle: saline with Tween-80): 232 % of control
T/C (dose: 200.0 mg/kg/injection, schedule: Q01DX010 (sc), vehicle: saline with Tween-80): 46 % of control

C[Si](C)(CCl)N[Si](C)(C)CCl
T/C (dose: 75.0 mg/kg/injection, schedule: Q04DX004 (sc), vehicle: saline with Tween-80): 91 % of control
T/C [6]: 84 % of control
T/C [7]: 101 % of control
T/C [8]: 78 % of control

COC1C(OC(=O)/C=C/C=C/C=C/C=C/C(=O)O)CCC2(CO2)C1C1(C)OC1CC=C(C)C (stereo not given)
T/C [1]: 104 % of control
T/C [2]: 96 % of control
T/C [3]: 119 % of control

CCCCCCCCCCCCCCCCCCOCC(COP(=O)([O-])OCC[N+](C)(C)C)OC (stereo not given)
T/C (dose: 37.5 mg/kg/injection, schedule: Q04DX004 (sc), vehicle: saline): 98 % of control
T/C [1]: 77 % of control
T/C [2]: 50 % of control

CCN(CC)c1ccc2cc(-c3nc4ccccc4n3C)c(=O)oc2c1
T/C [9]: 82 % of control
T/C [10]: 67 % of control
T/C [5]: 88 % of control
